Source: patent publication US8404839B2, “Crystalline 4-(3-chloro-2-fluoroanilino)-7 methoxy-6-{[1-(N-methylcarbamoylmethyl)piperidin-4-yl]oxy} quinazoline difumarate Form A” (Astrazeneca AB, priority 2008, dated 2013)
Values after ≈ are worked out from the molar mass of the structure shown. Like-named read-outs stand apart in the source and are kept apart here.

Key:
Dynamic vapour sorption = format: physicochemical; conditions: for hygroscopicity (in words): Dynamic Vapour Sorption
Procedure: (ix) dynamic vapour sorption was measured using a SMS DVS (Surface Measurement Systems Limited, UK). Samples were analysed at 25° C. using a gas flow of 200 cubic centimeters per minute. The relative humidity (RH) was increased from 0% RH in steps of 10% RH to 80% RH with the final step of 95% RH. The sample was then desorbed using the same RH step pattern as the sorption; this procedure was then repeated in a second sorption/desorption cycle. Equilibration at each humidity step is set such that the rate of change of weight with time (minute) was 0.002%.

[1] = Pharmacokinetic study in dogs; format: in vivo, Male Beagle Dogs; conditions: dog, n = 4, mean ± SE; for AUC(0-t): read-out: AUC(0-48)
[2] = Aqueous solubility (HPLC UV); format: physicochemical; conditions: for solubility at 48 h: thermodynamic from solid, 25° C.
Procedure: (xi) solubility in water was measured using HPLC UV.
The intrinsic dissolution rates of Compound (I) difumarate Form A and Compound (I) was also been measured in a range of aqueous buffers.

[3] = In vitro dissolution of direct compression tablets; format: physicochemical; conditions: pH 4.5 citrate buffer, 100 mg free base equivalents
Procedure: The performance of the solid dosage forms was evaluated in vitro prior to the in-vivo dog study commencing.

[4] = Intrinsic dissolution rate in aqueous buffers; format: physicochemical; conditions: for Intrinsic Dissolution Rate: 37° C.
Procedure: (x) intrinsic dissolution rate was measured in a dissolution bath coupled to a fibre optic uv detector.

[5] = Cellular permeability / BCS classification; format: in vitro ADME
ErbB3 = test: p-ErbB3 ELISA in HRG-stimulated MCF-7 cells; format: cell-based, Human; conditions: 90 minutes treatment, bracket = confidence interval ratio, read-out: p-ErbB3 Geo Mean IC50 (95% CIR)
Procedure: KB cells and MCF-7 cells were obtained from the American Type Culture Collection (ATCC) and routinely cultured in RPMI 1640 (Phenol red free)+10% Foetal Bovine Serum+2 mM L-Glutamine. KB cells were seeded at 5000 cells/well and MCF-7 cells at 4000 cells/well in 96 well plates in RPMI 1640 media containing 10% FBS. Cells were incubated for 72 hours before replacing the media with serum-free RPMI 1640 media for 24 hours. […] Immediately before cell lysis, MCF-7 and KB cells were incubated for 5 minutes with ligand (heregulin (“HRG”) for the MCF-7 cells and epidermal growth factor (“EGF”) for the KB cells) at concentrations required to increase receptor phosphorylation to 90% of max (ED90) to allow inter-assay comparison. The p-EGFR status of KB cells was measured using the Human phospho-EGFR Duoset ELISA kit (R&D systems total EGFR #DYC1854, pEGFR #DYC1095). The p-ErbB2 and p-ErbB3 content of MCF-7 cells were measured using the Human phospho-ErbB2 Duoset ELISA kit (R&D systems, DYC1768) and Human phospho-ErbB3 Duoset ELISA kit (R&D systems, DYC1769) respectively. The kits measured whole cell tyrosine phosphorylation of EGFR, ErbB2 or ErbB3. Assays were performed according to the manufacturers instructions, with 50 μl lysate added per well.

MCF-7 cells [6] = test: Basal MCF-7 cell proliferation assay (MTS); format: cell-based; conditions: Homo sapiens, MCF7, 96 h, unstimulated, 4 days, read-out: Basal proliferation Geo Mean GI50
Procedure: MCF-7 cells were routinely cultured in DMEM (Phenol red free)+10% Foetal Bovine Serum+2 mM L-Glutamine. […] Basal wells were unstimulated with ligand. After incubation for 4 days, cell viability was assessed using a 3-(4,5-dimethylthiazol-2-yl)-5-(3-carboxymethoxyphenyl)-2-(4-sulfophenyl)-2H-tetrazolium (MTS) assay. Prior to IC50 determination of HRG-stimulated compound-treated cells, mean basal growth at 96 hours was subtracted from each of the readouts so that proliferation driven through HRG-signalling was assessed. Basal IC50 values are expressed as GI50 i.e. the day 0 plate cell number (baseline reading) was subtracted from the readout at 96 hours later.

ErbB2 = ErbB2 (Homo sapiens, UniProt P04626); test: p-ErbB2 ELISA in HRG-stimulated MCF-7 cells; format: cell-based; conditions: 90 minutes treatment, bracket = confidence interval ratio, read-out: p-ErbB2 Geo Mean IC50 (95% CIR)
MCF-7 cells [7] = test: HRG-stimulated MCF-7 cell proliferation assay (MTS); format: cell-based; conditions: Homo sapiens, MCF7, 96 h, 10 ng/ml HRG, 4 days, basal growth subtracted, read-out: HRG-stimulated proliferation Geo Mean IC50
[8] = oral direct compressed tablet, 100 mg free form equivalent
[9] = oral direct compressed tablet, 100 mg free form equivalent, versus IV 20 mg
[10] = male, beagle, plasma, oral direct compressed tablet, 100 mg free form equivalent

ErbB2, sequence (P04626 23-1255): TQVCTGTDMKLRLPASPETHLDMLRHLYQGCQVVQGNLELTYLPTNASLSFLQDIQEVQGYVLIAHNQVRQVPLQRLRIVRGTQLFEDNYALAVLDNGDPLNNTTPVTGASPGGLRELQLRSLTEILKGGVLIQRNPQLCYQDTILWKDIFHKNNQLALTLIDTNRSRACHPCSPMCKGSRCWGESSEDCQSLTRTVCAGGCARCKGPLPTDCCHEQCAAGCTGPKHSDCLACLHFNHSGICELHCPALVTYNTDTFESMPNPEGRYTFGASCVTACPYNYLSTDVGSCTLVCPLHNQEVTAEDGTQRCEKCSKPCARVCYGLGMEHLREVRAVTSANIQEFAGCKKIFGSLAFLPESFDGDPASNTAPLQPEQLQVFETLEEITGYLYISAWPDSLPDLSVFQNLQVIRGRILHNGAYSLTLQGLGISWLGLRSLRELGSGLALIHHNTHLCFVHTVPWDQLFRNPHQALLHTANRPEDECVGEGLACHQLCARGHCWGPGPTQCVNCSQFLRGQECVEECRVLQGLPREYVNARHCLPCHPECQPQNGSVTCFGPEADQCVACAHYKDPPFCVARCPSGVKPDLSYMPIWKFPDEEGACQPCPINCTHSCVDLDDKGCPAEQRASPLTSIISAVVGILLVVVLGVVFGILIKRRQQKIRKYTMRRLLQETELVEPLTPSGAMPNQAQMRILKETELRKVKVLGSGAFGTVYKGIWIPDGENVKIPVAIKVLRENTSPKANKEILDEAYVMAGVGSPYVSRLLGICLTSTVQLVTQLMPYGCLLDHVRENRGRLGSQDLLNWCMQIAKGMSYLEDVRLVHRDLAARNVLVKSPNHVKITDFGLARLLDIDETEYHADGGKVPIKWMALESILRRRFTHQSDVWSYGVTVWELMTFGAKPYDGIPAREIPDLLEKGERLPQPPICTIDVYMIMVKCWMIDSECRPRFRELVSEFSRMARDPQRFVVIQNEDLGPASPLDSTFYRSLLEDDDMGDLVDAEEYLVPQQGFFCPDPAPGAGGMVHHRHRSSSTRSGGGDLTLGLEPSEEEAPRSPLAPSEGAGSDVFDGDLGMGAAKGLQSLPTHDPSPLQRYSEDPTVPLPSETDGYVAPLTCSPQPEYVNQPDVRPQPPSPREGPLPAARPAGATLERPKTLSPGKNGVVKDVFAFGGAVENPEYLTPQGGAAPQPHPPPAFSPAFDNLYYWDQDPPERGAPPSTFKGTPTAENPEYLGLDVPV

CNC(=O)CN1CCC(Oc2cc3c(Nc4cccc(Cl)c4F)ncnc3cc2OC)CC1.O=C(O)/C=C/C(=O)O.O=C(O)/C=C/C(=O)O [Compound (I) difumarate Form A, 2-[4-({4-[(3-Chloro-2-fluorophenyl)amino]-7-methoxyquinazolin-6-yl}oxy)piperidin-1-yl]-N-methylacetamide di-[(2E)-but-2-enedioate] Form A]
hygroscopicity (in words) (Dynamic vapour sorption): non-hygroscopic
moisture absorbed (Dynamic Vapour Sorption) (Dynamic vapour sorption; up to 95% relative humidity, 25° C.): < 0.5%
AUC(0-48) [1, 8]: 190.3 ± 46.9 µM·h
Cmax [1, 8]: 32.6 ± 3.6 µM
Tmax [1, 8]: 1.1 ± 0.3 h
half-life [1, 8]: 16.9 ± 4.0 h
Bioavailability(0-48 h) [1, 9]: 113%
Bioavailability(0-48 h) ([1]; oral direct compressed tablet, 100 mg free form equivalent, versus IV 20 mg, listed as Difumarate Form A): 112.5 ± 8.1%
solubility in water ([2]; pH 3.5): 22500 µg/mL
% Dissolution at 45 minutes [3]: 100.3%
Intrinsic Dissolution Rate ([4]; SGF (Simulated Gastric Fluid)): 15.9 mgmin^−1cm^−2
Intrinsic Dissolution Rate ([4]; pH 6.5 phosphate buffer): 2.51 mgmin^−1cm^−2

CNC(=O)CN1CCC(Oc2cc3c(Nc4cccc(Cl)c4F)ncnc3cc2OC)CC1 [Compound (I), 4-(3-chloro-2-fluoroanilino)-7-methoxy-6-{[1-(N-methylcarbamoylmethyl)piperidin-4-yl]oxy}quinazoline]
hygroscopicity (in words) (Dynamic vapour sorption): moderately hygroscopic
moisture uptake (Dynamic Vapour Sorption) (Dynamic vapour sorption; at 80% relative humidity, 25° C.): approximately 1.9 % w/w
Bioavailability(0-48 h) [1, 9]: 63.5 ± 7.0%
bioavailability ([1]; male, beagle, plasma, oral, 100 mg, oral direct compressed tablet, 100 mg free form equivalent, versus IV 20 mg, read-out: Bioavailability(0-48 h)): 64%
Cmax ([1]; male, beagle, plasma, IV 20 mg): 9 ± 1.1 µM
AUC(0-t) ([1]; male, beagle, plasma, IV 20 mg): 33.4 ± 7.7 µM·h
clearance ([1]; male, beagle, plasma, IV 20 mg, read-out: Cl (Clearance)): 1.9 ± 0.5 mL/min/kg
half-life ([1]; male, beagle, plasma, IV 20 mg, read-out: Half-life (converted)): 5.3 ± 0.2 h
Tmax ([1]; male, beagle, plasma, IV 20 mg, read-out: Tmax): 0.2 h
Vd ([1]; male, beagle, plasma, IV 20 mg, read-out: Vss (Volume of distribution at steady state)): 0.6 ± 0.1 L/kg
Cmax [1, 10]: 14 ± 1.7 µM
AUC(0-t) [1, 10]: 104 ± 25.3 µM·h
half-life ([1]; male, beagle, plasma, oral direct compressed tablet, 100 mg free form equivalent, read-out: Half-life (converted)): 8.2 ± 0.6 h
Tmax ([1]; male, beagle, plasma, oral direct compressed tablet, 100 mg free form equivalent, read-out: Tmax): 1.6 ± 0.8 h
solubility at 48 h ([2]; aqueous buffer, pH 2.7, 48 hours, read-out: solubility in aqueous buffer): 27200 µg/mL (≈ 57400 µM)
solubility at 48 h ([2]; aqueous buffer, pH 7.9, 48 hours, read-out: solubility in aqueous buffer): 1 µg/mL (≈ 2.11 µM)
solubility at 48 h ([2]; water, 48 hours, pH 7.0, read-out: solubility in water): 1 µg/mL (≈ 2.11 µM)
% Dissolution at 45 minutes [3]: 93.6%
cellular permeability (in words) [5]: high
BCS classification ([5]; suggested by low solubility and high permeability): Class II
Intrinsic Dissolution Rate ([4]; SGF (Simulated Gastric Fluid)): 19.2 mgmin^−1cm^−2
Intrinsic Dissolution Rate ([4]; pH 6.5 phosphate buffer): 0.01 mgmin^−1cm^−2
intrinsic dissolution rate (in words) ([4]; particularly at pH below 6.0): relatively low
IC50 (ErbB3): 4 nM
GI50 (MCF-7 cells [6]): 1090 nM
IC50 (ErbB2): 3 nM
IC50 (MCF-7 cells [7]): 61 nM
